Where a name gives a salt, the structure may show the parent alone.
Assays:
[1] = Within-participant escalating dose trial Part B: safety and tolerability (TEAEs); format: in vivo, human; details: titration 20 to 120 mg per day; no maximum tolerated dosage identified; hydrochloride
[2] = Food effect: high-fat, high-calorie meal, single 20 mg dose; format: in vivo, human; details: single 20 mg oral dose
Procedure: The effect of a high-fat, high-calorie meal on the pharmacokinetics of a compound of formula (II) was evaluated in an open-label, sequential fashion following a single 20 mg dose of formulation 5 in participants who had previously received a 20 mg dose of formulation 5 under fasted conditions.

gamma band EEG power = experiment: qEEG: gamma band EEG power (eyes open / eyes closed); format: in vivo, human; details: Part B, beginning at 60 mg and continuing through to 120 mg
Source text: It appears a maximal effect in gamma reduction was not achieved.
The eyes open (EO) and eyes closed (EC) gamma absolute power for each individual was also estimated at specific time points across the study days.

hCav3.2 = target: T1, hCav3.2 (Homo sapiens, UniProt O95180); experiment: PatchXpress patch clamp, voltage dependent block (half-inactivated state, V0.5); format: cell-based; details: for Inhibition of hCav3.2 peak current, voltage dependent block (percent inhibition), mean: half-inactivated state (V0.5)
T1 construct: expressed in transfected cells; host or cells: HEK-293 (cultured under G418 selection)
Procedure: (§1) The voltage dependence of calcium channel isoforms was determined by comparing the activity of resting (Tonic Block) and half-inactivated (Voltage Dependent Block) voltages across various concentrations of Formula (II). First, HEK-293 cells containing hCav3.1, hCav3.2, or hCav3.3 calcium channel isoforms were prepared by seeding at 2×10^6 cells per flask in culture for 2 days; the cells were then harvested at about 6×10^6 cells. Harvested cells were washed once in DPBS for approximately 30 minutes, and 1 mL of 1× (0.05%) Trypsin-EDTA was added, swirled, and allowed to sit on the cells for approximately 4 minutes. 10 mL of warmed DMEM high glucose media supplemented with 10% fetal bovine serum, 2 mM sodium pyruvate, 10 mM HEPES, and 400 μg/mL G418 was added, and the cells were triturated until a single cell suspension was […]. Cells were placed in a 250 mL centrifuge tube with 30 mL warmed media and gently rocked at 28° C. for approximately 1 hour. Cell aliquots of 5 mLs (1×10^6 cells) were then centrifuged at 100× for 2 minutes, and supernatant was removed. Next, 100 μl of external recording solution was added to the remaining cell pellet and triturated 20 times to achieve a single cell suspension.
(§2) Immediately prior to assay, Formula (II) was diluted with DMSO to 300× the designated final concentration. All studies were performed using the Molecular Devices PatchXpress automated patch clamp platform at room temperature.
(§3) Pharmacology was measured during Epoch 1. Percent inhibition was calculated as: 100*((([Step 2+Step 5]/2)−Step 3)/(Step 2+Step 5/2)), wherein Step 2 is the peak current measured at baseline, Step 5 is the current measured during the wash period, and Step 3 is the peak current measured during application of the compound. The average of the final 3 consecutive currents in each experimental procedure was used for all calculations. The concentration response curve was fit with a Hill equation to derive IC50, slope, minimum response, and maximum response fitting parameters.
(§4) To calculate the hCav3.1, hCav3.2, and hCav3.3 peak current from a half-inactivated state (voltage dependent block), currents were first evoked by depolarizing pulses to −25 mV (10 ms) from a non-inactivating holding potential (−120 mV) at a frequency of 0.1 Hz. After current amplitude became stable, the mid-point average of steady state inactivation was determined for each cell using a series of 9,900 ms conditioning steps to increasingly depolarize voltages (ranging from Vhold (−120 mV) to −40 mV) preceding a test pulse to −25 mV (10 ms) to establish the magnitude of inactivation. The holding command potential was then set to the voltage that produced approximately 50% inactivation (V0.5) using PatchXpress scripts. From this V0.5 potential, a voltage step to −25 mV (10 ms) was used to evoque peak current. The voltage was stepped to −120 mv (50 ms) to evoque tail currents and monitor cell integrity.
(§5) The effect of the compound on peak current amplitude was monitored using the voltage protocol described above and washed out after reaching steady state as determined by PatchXpress stability scripts. Washout was performed at the original holding potential of −120 mV to facilitate reversal of state-dependent interactions. Washout current for the calculation of inhibition was determined by resetting the holding potential to the previously determined half-inactivation potential (V0.5) and measuring peak current from this holding potential. Pharmacology was measured during Epoch 1, and percent inhibition was calculated as discussed above for tonic block.

hCav3.1 = target: T2, hCav3.1 (Homo sapiens, UniProt O43497); experiment: as above; format: cell-based; details: for Inhibition of hCav3.1 peak current, voltage dependent block (percent inhibition), mean: half-inactivated state (V0.5)
T2 construct: expressed in transfected cells; host or cells: HEK-293 (cultured under G418 selection)
Procedure: as §1, §2, §3, §4, §5

hCav3.3 = target: T3, hCav3.3 (Homo sapiens, UniProt Q9P0X4); experiment: as above; format: cell-based; details: for Inhibition of hCav 3.3 peak current, voltage dependent block (percent inhibition), mean: half-inactivated state (V0.5)
T3 construct: expressed in transfected cells; host or cells: HEK-293 (cultured under G418 selection)
Procedure: as §1, §2, §3, §4, §5

T3 sequence (Q9P0X4 whole entry): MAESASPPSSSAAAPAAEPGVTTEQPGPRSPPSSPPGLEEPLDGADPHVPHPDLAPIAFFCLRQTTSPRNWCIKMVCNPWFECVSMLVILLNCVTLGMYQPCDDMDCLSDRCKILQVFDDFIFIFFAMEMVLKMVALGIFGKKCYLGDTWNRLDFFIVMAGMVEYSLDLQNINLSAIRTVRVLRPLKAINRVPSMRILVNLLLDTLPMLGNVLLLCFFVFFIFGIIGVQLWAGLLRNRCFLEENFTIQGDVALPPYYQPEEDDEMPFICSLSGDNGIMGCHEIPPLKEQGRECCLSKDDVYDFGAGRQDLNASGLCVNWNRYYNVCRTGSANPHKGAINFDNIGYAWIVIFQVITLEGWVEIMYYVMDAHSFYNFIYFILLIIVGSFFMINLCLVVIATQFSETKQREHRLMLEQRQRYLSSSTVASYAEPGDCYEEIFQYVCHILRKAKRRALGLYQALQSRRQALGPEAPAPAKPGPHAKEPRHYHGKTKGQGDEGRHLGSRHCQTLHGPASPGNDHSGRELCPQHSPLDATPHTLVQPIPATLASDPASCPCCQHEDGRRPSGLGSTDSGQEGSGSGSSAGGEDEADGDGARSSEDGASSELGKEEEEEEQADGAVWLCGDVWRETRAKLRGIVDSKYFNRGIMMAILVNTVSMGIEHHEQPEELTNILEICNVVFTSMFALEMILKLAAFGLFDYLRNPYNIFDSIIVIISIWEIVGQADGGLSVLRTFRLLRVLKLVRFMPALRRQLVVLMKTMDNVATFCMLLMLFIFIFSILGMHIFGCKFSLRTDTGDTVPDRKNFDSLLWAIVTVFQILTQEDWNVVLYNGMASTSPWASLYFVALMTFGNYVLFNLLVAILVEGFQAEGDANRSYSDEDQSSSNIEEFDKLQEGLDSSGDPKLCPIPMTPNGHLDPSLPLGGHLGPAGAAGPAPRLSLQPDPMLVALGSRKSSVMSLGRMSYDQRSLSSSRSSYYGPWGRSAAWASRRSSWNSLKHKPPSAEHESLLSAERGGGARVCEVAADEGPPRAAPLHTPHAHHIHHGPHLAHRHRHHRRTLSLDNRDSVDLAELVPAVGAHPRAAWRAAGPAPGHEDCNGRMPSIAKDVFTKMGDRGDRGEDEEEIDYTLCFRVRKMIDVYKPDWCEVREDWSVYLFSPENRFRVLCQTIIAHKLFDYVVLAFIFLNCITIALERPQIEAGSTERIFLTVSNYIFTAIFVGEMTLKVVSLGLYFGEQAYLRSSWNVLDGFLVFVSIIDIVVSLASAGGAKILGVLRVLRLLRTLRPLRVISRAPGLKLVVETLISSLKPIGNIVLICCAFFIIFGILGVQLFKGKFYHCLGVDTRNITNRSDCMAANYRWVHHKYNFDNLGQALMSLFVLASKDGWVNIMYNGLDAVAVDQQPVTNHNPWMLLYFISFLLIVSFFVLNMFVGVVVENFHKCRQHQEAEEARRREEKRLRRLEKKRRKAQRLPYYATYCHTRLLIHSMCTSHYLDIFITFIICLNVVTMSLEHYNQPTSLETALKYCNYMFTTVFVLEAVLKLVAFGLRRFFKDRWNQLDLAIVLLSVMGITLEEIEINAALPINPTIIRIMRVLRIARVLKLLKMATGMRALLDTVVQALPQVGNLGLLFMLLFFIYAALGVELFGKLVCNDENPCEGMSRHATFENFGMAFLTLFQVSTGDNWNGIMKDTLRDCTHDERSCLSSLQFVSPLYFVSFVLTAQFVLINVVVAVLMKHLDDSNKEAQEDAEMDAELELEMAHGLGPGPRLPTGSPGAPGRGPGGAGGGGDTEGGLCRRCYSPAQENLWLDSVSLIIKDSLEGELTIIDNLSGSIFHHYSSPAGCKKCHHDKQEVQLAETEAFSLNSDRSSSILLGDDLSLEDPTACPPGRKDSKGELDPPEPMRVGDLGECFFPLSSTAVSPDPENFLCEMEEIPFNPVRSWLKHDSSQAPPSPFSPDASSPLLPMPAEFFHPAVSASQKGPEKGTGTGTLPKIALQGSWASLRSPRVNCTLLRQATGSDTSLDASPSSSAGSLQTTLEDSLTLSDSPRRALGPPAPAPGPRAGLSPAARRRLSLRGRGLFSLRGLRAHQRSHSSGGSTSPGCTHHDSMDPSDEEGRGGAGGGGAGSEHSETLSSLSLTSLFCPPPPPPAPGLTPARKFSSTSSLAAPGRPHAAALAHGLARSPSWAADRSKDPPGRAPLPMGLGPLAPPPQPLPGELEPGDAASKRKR
T1 sequence (O95180 whole entry): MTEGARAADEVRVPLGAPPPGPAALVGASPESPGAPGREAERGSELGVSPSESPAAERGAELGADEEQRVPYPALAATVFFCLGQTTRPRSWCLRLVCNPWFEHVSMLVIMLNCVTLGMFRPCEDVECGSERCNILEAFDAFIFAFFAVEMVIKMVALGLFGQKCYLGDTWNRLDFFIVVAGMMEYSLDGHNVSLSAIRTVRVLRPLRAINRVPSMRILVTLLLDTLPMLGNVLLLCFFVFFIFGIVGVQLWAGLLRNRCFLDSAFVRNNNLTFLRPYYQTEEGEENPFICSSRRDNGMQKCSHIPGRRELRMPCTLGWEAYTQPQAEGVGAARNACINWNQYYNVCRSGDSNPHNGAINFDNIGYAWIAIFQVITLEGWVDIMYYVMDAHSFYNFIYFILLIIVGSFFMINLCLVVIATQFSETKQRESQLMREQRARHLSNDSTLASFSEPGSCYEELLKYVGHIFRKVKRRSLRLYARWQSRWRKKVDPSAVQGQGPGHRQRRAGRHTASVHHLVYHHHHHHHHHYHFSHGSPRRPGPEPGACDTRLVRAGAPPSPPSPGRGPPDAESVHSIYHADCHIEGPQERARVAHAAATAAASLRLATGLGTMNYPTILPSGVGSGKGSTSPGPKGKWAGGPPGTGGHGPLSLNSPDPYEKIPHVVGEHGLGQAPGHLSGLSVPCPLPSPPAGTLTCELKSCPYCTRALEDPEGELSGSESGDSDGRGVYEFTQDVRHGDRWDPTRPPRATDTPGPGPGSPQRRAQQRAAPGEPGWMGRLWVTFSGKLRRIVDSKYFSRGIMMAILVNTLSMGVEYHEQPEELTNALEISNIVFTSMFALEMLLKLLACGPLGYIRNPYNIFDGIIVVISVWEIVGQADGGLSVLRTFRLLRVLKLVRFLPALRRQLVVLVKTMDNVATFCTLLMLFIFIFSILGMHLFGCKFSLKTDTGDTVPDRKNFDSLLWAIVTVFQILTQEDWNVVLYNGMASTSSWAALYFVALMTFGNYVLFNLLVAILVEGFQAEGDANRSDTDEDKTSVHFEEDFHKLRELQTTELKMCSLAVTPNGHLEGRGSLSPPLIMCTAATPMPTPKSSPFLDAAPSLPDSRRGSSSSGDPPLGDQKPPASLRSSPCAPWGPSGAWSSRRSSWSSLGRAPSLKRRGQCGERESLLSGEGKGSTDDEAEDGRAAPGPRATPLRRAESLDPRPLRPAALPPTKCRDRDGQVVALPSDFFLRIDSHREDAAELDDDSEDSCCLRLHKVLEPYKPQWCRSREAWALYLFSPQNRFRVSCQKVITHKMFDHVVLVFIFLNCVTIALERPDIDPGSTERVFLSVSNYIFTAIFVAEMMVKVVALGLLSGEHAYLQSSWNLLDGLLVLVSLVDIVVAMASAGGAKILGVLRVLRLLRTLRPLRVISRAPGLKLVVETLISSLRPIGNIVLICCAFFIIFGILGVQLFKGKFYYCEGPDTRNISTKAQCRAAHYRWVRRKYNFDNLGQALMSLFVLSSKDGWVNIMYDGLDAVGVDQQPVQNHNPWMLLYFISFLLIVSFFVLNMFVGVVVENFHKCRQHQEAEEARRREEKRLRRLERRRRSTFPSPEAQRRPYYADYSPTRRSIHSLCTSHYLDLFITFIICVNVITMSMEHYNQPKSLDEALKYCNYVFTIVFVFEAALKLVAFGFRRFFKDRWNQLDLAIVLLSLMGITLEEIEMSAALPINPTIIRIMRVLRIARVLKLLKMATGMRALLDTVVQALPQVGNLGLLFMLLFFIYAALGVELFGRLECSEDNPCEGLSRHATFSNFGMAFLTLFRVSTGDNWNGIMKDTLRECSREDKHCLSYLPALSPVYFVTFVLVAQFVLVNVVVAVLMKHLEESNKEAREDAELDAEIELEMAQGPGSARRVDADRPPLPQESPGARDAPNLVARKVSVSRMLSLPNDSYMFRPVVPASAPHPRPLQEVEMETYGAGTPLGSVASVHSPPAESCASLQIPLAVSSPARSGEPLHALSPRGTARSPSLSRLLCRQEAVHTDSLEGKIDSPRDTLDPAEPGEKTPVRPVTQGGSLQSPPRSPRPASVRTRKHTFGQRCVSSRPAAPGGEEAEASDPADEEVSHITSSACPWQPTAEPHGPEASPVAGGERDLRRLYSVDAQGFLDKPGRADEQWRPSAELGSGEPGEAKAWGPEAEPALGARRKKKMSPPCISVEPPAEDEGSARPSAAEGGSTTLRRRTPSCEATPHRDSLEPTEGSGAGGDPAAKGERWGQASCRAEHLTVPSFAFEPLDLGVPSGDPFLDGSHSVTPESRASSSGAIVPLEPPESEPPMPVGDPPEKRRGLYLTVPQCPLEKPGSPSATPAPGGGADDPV

## CC(C)(C)NC(=O)CN1CCC(CNC(=O)c2cc(F)cc(Cl)c2)CC1 [compound of formula (II), N-((1-(2-(tert-butylamino)-2-oxoethyl)piperidin-4-yl)methyl)-3-chloro-5-fluorobenzamide hydrochloride]
[1]
  Dose levels well-tolerated with a titrated dosing schedule: up to 120 mg per day
[2]
  AUClast Ratio (fed/fasted): 1.14
  AUC∞ Ratio (fed/fasted): 1.15
  Cmax Ratio (fed/fasted): 1.49
Gamma band EEG power
  Effect on gamma band EEG power: dose-related reduction
hCav3.2; 0.03 μm
  Inhibition of hCav3.2 peak current, voltage dependent block (percent inhibition), mean: 16.6 (11)
hCav3.2; 0.09 μm
  Inhibition of hCav3.2 peak current, voltage dependent block (percent inhibition), mean: 31.2 (7)
hCav3.2; 0.27 μm
  Inhibition of hCav3.2 peak current, voltage dependent block (percent inhibition), mean: 48.4 (9)
hCav3.2; 0.91 μm
  Inhibition of hCav3.2 peak current, voltage dependent block (percent inhibition), mean: 78.8 (12)
hCav3.2; 2.74 μm
  Inhibition of hCav3.2 peak current, voltage dependent block (percent inhibition), mean: 91.6 (13)
hCav3.2; hCav3.2
  tonic block/voltage dependent block (TB/VDB) ratio: 2.0
hCav3.1; 0.03 μm
  Inhibition of hCav3.1 peak current, voltage dependent block (percent inhibition), mean: 13.9 (12)
hCav3.1; 0.09 μm
  Inhibition of hCav3.1 peak current, voltage dependent block (percent inhibition), mean: 29.7 (14)
hCav3.1; 0.27 μm
  Inhibition of hCav3.1 peak current, voltage dependent block (percent inhibition), mean: 55.2 15)
hCav3.1; 0.91 μm
  Inhibition of hCav3.1 peak current, voltage dependent block (percent inhibition), mean: 73.8 (9)
hCav3.1; 2.74 μm
  Inhibition of hCav3.1 peak current, voltage dependent block (percent inhibition), mean: 84.6 (9)
hCav3.1; 9.13 μm
  Inhibition of hCav3.1 peak current, voltage dependent block (percent inhibition), mean: 86.0 (7)
hCav3.1; hCav3.1
  tonic block/voltage dependent block (TB/VDB) ratio: 3.8
hCav3.3; 0.03 μm
  Inhibition of hCav 3.3 peak current, voltage dependent block (percent inhibition), mean: 12.9 (8)
hCav3.3; 0.09 μm
  Inhibition of hCav 3.3 peak current, voltage dependent block (percent inhibition), mean: 26.9 (17)
hCav3.3; 0.27 μm
  Inhibition of hCav 3.3 peak current, voltage dependent block (percent inhibition), mean: 58.7 (19)
hCav3.3; 0.91 μm
  Inhibition of hCav 3.3 peak current, voltage dependent block (percent inhibition), mean: 76.9 (20)
hCav3.3; 2.74 μm
  Inhibition of hCav 3.3 peak current, voltage dependent block (percent inhibition), mean: 89.4 (20)
hCav3.3; 9.13 μm
  Inhibition of hCav 3.3 peak current, voltage dependent block (percent inhibition), mean: 92.9 (4)
hCav3.3; hCav3.3
  tonic block/voltage dependent block (TB/VDB) ratio: 4.0

Reference: patent publication US12697331B2, “Methods of use of T-type calcium channel modulators” (PRAXIS PRECISION MEDICINES, INC., priority 2020, dated 2026)
